According to US20200002283A1, “PYRAZOLE DERIVATIVES HAVING ACTIVITY AGAINST PAIN” (priority 2016, published 2020):
Like-named read-outs stand apart in the source and are kept apart here.

Legend:
[1] = molecular target: T1, human μ-opioid receptor (Homo sapiens, UniProt P35372); assay: Human μ-opioid receptor radioligand assay ([3H]-DAMGO); type: binding
T1 construct: expressed in transfected cells; host or cells: CHO-K1
Procedure: Human μ-Opioid Receptor Radioligand Assay
To investigate binding properties of test compounds to human μ-opioid receptor, transfected CHO-K1 cell membranes and [^3H]-DAMGO (Perkin Elmer, ES-542-C), as the radioligand, were used. The assay was carried out with 20 μg of membrane suspension, 1 nM of [^3H]-DAMGO in either absence or presence of either buffer or 10 μM Naloxone for total and non-specific binding, respectively. Binding buffer contained Tris-HCl 50 mM, MgCl2 5 mM at pH 7.4. Plates were incubated at 27° C. for 60 minutes. After the incubation period, the reaction mix was then transferred to MultiScreen HTS, FC plates (Millipore), filtered and plates were washed 3 times with ice-cold 10 mM Tris-HCL (pH 7.4). Filters were dried and counted at approximately 40% efficiency in a MicroBeta scintillation counter (Perkin-Elmer) using EcoScint liquid scintillation cocktail.

[2] = molecular target: Human α2δ-1 subunit of Cav2.2 calcium channel (Homo sapiens, UniProt P54289); assay: Human α2δ-1 subunit of Cav2.2 calcium channel assay ([3H]-Gabapentin binding)
Procedure: Human α2δ-1 Subunit of Cav2.2 Calcium Channel Assay
Human α2δ-1 enriched membranes (2.5 μg) were incubated with 15 nM of radiolabeled [3H]-Gabapentin in assay buffer containing Hepes-KOH 10 mM, pH 7.4. NSB (non specific binding) was measured by adding 10 μM pregabalin. After 60 min incubation at 27° C., binding reaction was terminated by filtering through Multiscreen GF/C (Millipore) presoaked in 0.5% polyethyleneimine in Vacuum Manifold Station, followed by 3 washes with ice-cold filtration buffer containing 50 mM Tris-HCl, pH 7.4. Filter plates were dried at 60° C. for 1 hour and 30 μl of scintillation cocktail were added to each well before radioactivity reading. Readings were performed in a Trilux 1450 Microbeta radioactive counter (Perkin Elmer).

[3] = transfected CHO-K1 cell membranes, 1 nM [3H]-DAMGO, read-out: μ binding
[4] = human α2δ-1 enriched membranes, 15 nM [3H]-Gabapentin, read-out: α2δ-1 binding

T1 sequence (P35372 whole entry): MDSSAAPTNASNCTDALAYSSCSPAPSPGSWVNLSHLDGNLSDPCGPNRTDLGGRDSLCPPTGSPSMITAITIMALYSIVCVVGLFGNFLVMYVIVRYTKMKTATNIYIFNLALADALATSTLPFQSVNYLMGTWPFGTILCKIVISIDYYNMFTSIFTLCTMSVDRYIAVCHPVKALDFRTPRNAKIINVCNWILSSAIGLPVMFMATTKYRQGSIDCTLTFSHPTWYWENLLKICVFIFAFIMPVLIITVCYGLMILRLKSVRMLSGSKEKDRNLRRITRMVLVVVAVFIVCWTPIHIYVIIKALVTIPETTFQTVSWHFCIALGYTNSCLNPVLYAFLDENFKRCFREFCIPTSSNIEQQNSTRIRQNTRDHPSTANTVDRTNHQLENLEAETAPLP
Sequence of Human α2δ-1 subunit of Cav2.2 calcium channel (P54289 25-1103): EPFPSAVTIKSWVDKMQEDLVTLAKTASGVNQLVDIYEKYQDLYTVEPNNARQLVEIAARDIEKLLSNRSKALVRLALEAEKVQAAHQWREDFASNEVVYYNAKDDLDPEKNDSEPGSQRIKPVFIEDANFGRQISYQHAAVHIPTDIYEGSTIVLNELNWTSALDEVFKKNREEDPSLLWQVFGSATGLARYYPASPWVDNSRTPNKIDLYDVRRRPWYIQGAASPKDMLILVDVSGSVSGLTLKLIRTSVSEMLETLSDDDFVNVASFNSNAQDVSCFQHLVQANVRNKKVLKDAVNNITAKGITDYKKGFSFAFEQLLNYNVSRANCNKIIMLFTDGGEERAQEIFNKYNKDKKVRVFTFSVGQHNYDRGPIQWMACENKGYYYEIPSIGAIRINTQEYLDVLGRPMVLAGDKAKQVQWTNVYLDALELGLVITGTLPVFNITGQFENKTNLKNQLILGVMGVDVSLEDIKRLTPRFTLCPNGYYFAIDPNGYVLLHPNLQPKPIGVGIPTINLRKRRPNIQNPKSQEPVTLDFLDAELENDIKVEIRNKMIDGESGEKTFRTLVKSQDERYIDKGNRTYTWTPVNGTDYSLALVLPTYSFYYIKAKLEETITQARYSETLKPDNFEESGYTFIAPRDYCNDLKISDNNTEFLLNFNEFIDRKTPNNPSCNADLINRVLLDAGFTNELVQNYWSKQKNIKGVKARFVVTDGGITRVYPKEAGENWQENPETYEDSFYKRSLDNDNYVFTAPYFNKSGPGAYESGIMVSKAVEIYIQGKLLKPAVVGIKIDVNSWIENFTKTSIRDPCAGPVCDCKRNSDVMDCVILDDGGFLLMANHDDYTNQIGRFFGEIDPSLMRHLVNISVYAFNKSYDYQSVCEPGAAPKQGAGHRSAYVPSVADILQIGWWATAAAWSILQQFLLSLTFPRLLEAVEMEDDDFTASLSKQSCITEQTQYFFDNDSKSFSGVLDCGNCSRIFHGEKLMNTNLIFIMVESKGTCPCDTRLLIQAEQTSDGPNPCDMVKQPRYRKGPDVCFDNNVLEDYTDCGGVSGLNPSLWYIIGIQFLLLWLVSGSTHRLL

| SMILES | Ki [1, 3] | Ki [2, 4] | Ki [1] | Ki [2] |
| --- | --- | --- | --- | --- |
| CC(N)c1cc(Cc2ccc(O)c(F)c2)n(-c2ccc(Cl)cc2Cl)n1 (stereo in doubt) [Example 63, (S)-4-{[3-(1-Aminoethyl)-1-(2,4-dichlorophenyl)-1H-pyrazol-5-yl]methyl}-2-fluorophenol] |  |  | > 500 nM | > 5000 nM |
| CC(N)c1cc(Cc2ccc(O)c(F)c2)n(-c2ccc(Cl)cc2Cl)n1 (stereo in doubt) [Example 64, (R)-4-{[3-(1-Aminoethyl)-1-(2,4-dichlorophenyl)-1H-pyrazol-5-yl]methyl}-2-fluorophenol] |  |  | > 500 nM | > 5000 nM |
| COc1ccc(Cc2cc(CN)nn2-c2ccc(Cl)cc2Cl)cc1 [Example 1, [1-(2,4-Dichlorophenyl)-5-(4-methoxybenzyl)-1H-pyrazol-3yl]methanamine] |  |  | 100 to 500 nM | < 500 nM |
| COc1ccc(Cc2cc(CN)nn2-c2ccccc2Cl)cc1 [Example 2, [1-(2-Chlorophenyl)-5-(4-methoxybenzyl)-1H-pyrazol-3-yl]methanamine] | > 500 nM | 500 to 3000 nM |  |  |
| COc1ccc(Cc2cc(CN)nn2-c2ccc(Cl)cc2)cc1 [Example 3, [1-(4-Chlorophenyl)-5-(4-methoxybenzyl)-1H-pyrazol-3-yl]methanamine] | > 500 nM | 3000 to 5000 nM |  |  |
| COc1ccc(Cc2cc(CN)nn2-c2ccc(OC)cc2Cl)cc1 [Example 4, [1-(2-Chloro-4-methoxyphenyl)-5-(4-methoxybenzyl)-1H-pyrazol-3-yl]methanamine] |  |  | 100 to 500 nM | 500 to 3000 nM |
| COc1ccc(-n2nc(CN)cc2Cc2ccc(O)cc2)cc1 [Example 6, 4-{[3-(Aminomethyl)-1-(4-methoxyphenyl)-1H-pyrazol-5-yl]methyl}phenol] | > 500 nM | 3000 to 5000 nM |  |  |
| CCOc1ccc(-n2nc(CN)cc2Cc2ccc(O)cc2)c(Cl)c1 [Example 7, 4-{[3-(Aminomethyl)-1-(2-chloro-4-ethoxyphenyl)-1H-pyrazol-5-yl]methyl}phenol] |  |  | < 100 nM | 500 to 3000 nM |
| COc1cccc(Cc2cc(CN)nn2-c2ccc(Cl)cc2Cl)c1 [Example 8, [1-(2,4-Dichlorophenyl)-5-(3-methoxybenzyl)-1H-pyrazol-3-yl]methanamine] | > 500 nM | 500 to 3000 nM |  |  |
| NCc1cc(Cc2ccccc2)n(-c2ccc(Cl)cc2Cl)n1 [Example 9, [5-Benzyl-1-(2,4-dichlorophenyl)-1H-pyrazol-3-yl]methanamine] | > 500 nM | 500 to 3000 nM |  |  |
| COc1ccc(-n2nc(CN)cc2Cc2ccccc2)cc1 [Example 10, [5-Benzyl-1-(4-methoxyphenyl)-1H-pyrazol-3-yl]methanamine] | > 500 nM | 500 to 3000 nM |  |  |
| COc1ccc(Cc2cc(CN)nn2CC(C)C)cc1 [Example 11, [1-Isobutyl-5-(4-methoxybenzyl)-1H-pyrazol-3-yl]methanamine] | > 500 nM | 500 to 3000 nM |  |  |
| COc1ccc(Cc2cc(CN)nn2Cc2ccc(Cl)cc2)cc1 [Example 12, [1-(4-Chlorobenzyl)-5-(4-methoxybenzyl)-1H-pyrazol-3-yl]methanamine] | > 500 nM | 500 to 3000 nM |  |  |
| COc1ccc(Cc2cc(CN)nn2Cc2ccccc2)cc1 [Example 13, [1-Benzyl-5-(4-methoxybenzyl)-1H-pyrazol-3-yl]methanamine] | > 500 nM | 500 to 3000 nM |  |  |
| COc1ccc(Cc2cc(CN)nn2Cc2ccccc2Cl)cc1 [Example 14, [1-(2-Chlorobenzyl)-5-(4-methoxybenzyl)-1H-pyrazol-3-yl]methanamine] | > 500 nM | 500 to 3000 nM |  |  |
| COc1ccc(Cc2cc(CN)nn2Cc2ccc(Cl)cc2Cl)cc1 [Example 15, [1-(2,4-Dichlorobenzyl)-5-(4-methoxybenzyl)-1H-pyrazol-3-yl]methanamine] | > 500 nM | 500 to 3000 nM |  |  |
| COc1ccc(Oc2cc(CN)nn2-c2ccc(Cl)cc2Cl)cc1 [Example 17, [1-(2,4-Dichlorophenyl)-5-(4-methoxyphenoxy)-1H-pyrazol-3-yl]methanamine] |  |  | 100 to 500 nM | 3000 to 5000 nM |
| COc1ccc(Cc2cc(CN)nn2-c2ccccc2)cc1 [Example 19, [5-(4-Methoxybenzyl)-1-phenyl-1H-pyrazol-3-yl]methanamine] | > 500 nM | 500 to 3000 nM |  |  |
| COc1ccc(Cc2cc(CN)nn2-c2ccccn2)cc1 [Example 20, [5-(4-Methoxybenzyl)-1-(pyridin-2-yl)-1H-pyrazol-3-yl]methanamine] | > 500 nM | 3000 to 5000 nM |  |  |
| COc1ccc(Cc2cc(C(C)N)nn2-c2ccc(Cl)cc2Cl)cc1 (centres unmarked) [Example 24, 1-[1-(2,4-Dichlorophenyl)-5-(4-methoxybenzyl)-1H-pyrazol-3-yl]ethanamine] |  |  | 100 to 500 nM | 500 to 3000 nM |
| CCOc1ccc(Cc2cc(C(C)N)nn2-c2ccc(Cl)cc2Cl)cc1 (centres unmarked) [Example 25, 1-[1-(2,4-Dichlorophenyl)-5-(4-ethoxybenzyl)-1H-pyrazol-3-yl]ethanamine] | > 500 nM | 500 to 3000 nM |  |  |
| COc1ccc(-n2nc(C(C)N)cc2Cc2ccc(O)cc2)c(Cl)c1 (centres unmarked) [Example 27, 4-{[3-(1-Aminoethyl)-1-(2-chloro-4-methoxyphenyl)-1H-pyrazol-5-yl]methyl}phenol] |  |  | < 100 nM | < 500 nM |
| COc1ccc(Cl)c(-n2nc(C(C)N)cc2Cc2ccc(O)cc2)c1 (centres unmarked) [Example 28, 4-{[3-(1-Aminoethyl)-1-(2-chloro-5-methoxyphenyl)-1H-pyrazol-5-yl]methyl}phenol] | > 500 nM | > 5000 nM |  |  |
| COc1ccc(Cc2cc(C(C)N)nn2-c2ccc(Cl)cc2Cl)cc1F (centres unmarked) [Example 30] | > 500 nM | > 5000 nM |  |  |
| COc1ccc(C(C)(C)c2cc(C(C)N)nn2-c2ccc(Cl)cc2Cl)cc1 (centres unmarked) [Example 33, 1-[1-(2,4-Dichlorophenyl)-5-(2-(4-methoxyphenyl)propan-2-yl)-1H-pyrazol-3-yl]ethanamine] | > 500 nM | > 5000 nM |  |  |
| NCc1cc(Cc2cccc(O)c2)n(-c2ccc(Cl)cc2Cl)n1 [Example 34, 3-{[3-(Aminomethyl)-1-(2,4-dichlorophenyl)-1H-pyrazol-5-yl]methyl}phenol] |  |  | 100 to 500 nM | 500 to 3000 nM |

The next lines start with results.

| Ki [1, 3] | Ki [2, 4] | SMILES | Ki [1] | Ki [2] |
| --- | --- | --- | --- | --- |
| > 500 nM | 500 to 3000 nM | COc1ccc(Cc2cc(CN)nn2-c2ccc(F)cc2Cl)cc1 [Example 5, [1-(2-Chloro-4-fluorophenyl)-5-(4-methoxybenzyl)-1H-pyrazol-3-yl]methanamine] |  |  |
| > 500 nM | 500 to 3000 nM | COc1ccc(Cc2cc(CN)nn2C(C)c2ccccc2)cc1 (centres unmarked) [Example 16, [5-(4-Methoxybenzyl)-1-(1-phenylethyl)-1H-pyrazol-3-yl]methanamine] |  |  |
| > 500 nM | > 5000 nM | CS(=O)(=O)Nc1ccc(Oc2cc(CN)nn2-c2ccc(Cl)cc2Cl)cc1 [Example 18, N-(4-{[3-(Aminomethyl)-1-(2,4-dichlorophenyl)-1H-pyrazol-5-yl]oxy}phenyl)methanesulfonamide] |  |  |
| > 500 nM | 3000 to 5000 nM | COc1ccc(Cc2cc(CN(C)C)nn2-c2ccc(Cl)cc2Cl)cc1 [Example 21, 1-[1-(2,4-Dichlorophenyl)-5-(4-methoxybenzyl)-1H-pyrazol-3-yl]-N,N-dimethylmethanamine] |  |  |
| > 500 nM | 3000 to 5000 nM | CNCc1cc(Cc2ccc(OC)cc2)n(-c2ccc(Cl)cc2Cl)n1 [Example 22, 1-[1-{2,4-Dichlorophenyl)-5-(4-methoxybenzyl)-1H-pyrazol-3-yl]-N-methylmethanamine] |  |  |
| > 500 nM | 500 to 3000 nM | CCNCc1cc(Cc2ccc(OC)cc2)n(CC(C)C)n1 [Example 23, N-{[1-Isobutyl-5-(4-methoxybenzyl)-1H-pyrazol-3-yl]methyl}ethanamine] |  |  |
| > 500 nM | 500 to 3000 nM | CC(N)c1cc(Cc2ccc(NS(C)(=O)=O)cc2)n(-c2ccc(Cl)cc2Cl)n1 (centres unmarked) [Example 26, N-(4-{[3-(1-Aminoethyl)-1-(2,4-dichlorophenyl)-1H-pyrazol-5-yl]methyl}phenyl)methanesulfonamide] |  |  |
| > 500 nM | > 5000 nM | COc1cc(Cl)ccc1-n1nc(C(C)N)cc1Cc1ccc(O)cc1 (centres unmarked) [Example 29, 4-{[3-(1-Aminoethyl)-1-(4-chloro-2-methoxyphenyl)-1H-pyrazol-5-yl]methyl}phenol] |  |  |
| > 500 nM | > 5000 nM | CCCC(N)c1cc(Cc2ccc(OC)c(F)c2)n(-c2ccc(Cl)cc2Cl)n1 (centres unmarked) [Example 31, 1-[1-(2,4-Dichlorophenyl)-5-(3-fluoro-4-methoxybenzyl)-1H-pyrazol-3-yl]butan-1-amine] |  |  |
| > 500 nM | > 5000 nM | CCC(N)c1cc(Cc2ccc(OC)cc2)n(-c2ccc(Cl)cc2Cl)n1 (centres unmarked) [Example 32, 1-[1-(2,4-Dichlorophenyl)-5-(4-methoxybenzyl)-1H-pyrazol-3-yl]propan-1-amine] |  |  |
| > 500 nM | 3000 to 5000 nM | NCc1cc(Cc2ccccc2)n(-c2ccc(O)cc2)n1 [Example 35, 4-[3-(Aminomethyl)-5-benzyl-1H-pyrazol-1-yl]phenol] |  |  |
